Measurements reported in patent US20170166555A1, “FUNCTIONALISED AND SUBSTITUTED INDOLES AS ANTI-CANCER AGENTS” (Novogen Limited, priority 2013, published 2017).

Columns and labels:
Test in all cases: Anti-proliferative assay, cell-titre luminescent reagent, 72 h (GVK-BIO)
Assay type in all cases: cell-based
[1] = tested on: A549 non-small cell lung carcinoma cells; conditions: Homo sapiens, A549, 72 h, 30, 3, 0.3 and 0.03 μM, linear regression (Tables 2-4), read-out: IC50/μM Lung (NSLC) A549
Protocol: (§1) The ability of compounds 4001, 4002, 4008, 4010, 4011, 4013-4015, 4018, 4026, 4045-4113 and 4115-4127 to inhibit the proliferation of cancer cells representative of neuroblastoma, melanoma, prostate cancer, colorectal cancer, non-small cell lung carcinoma, and triple negative breast cancer was assessed. These studies were conducted by contract research (GVK-BIO). Briefly, a pre-determined number of cells as calculated from cell growth assays for each of the cell lines employed were seeded into their respective culture medium (using ATCC culture parameters—http://www.atcc.org) and cultured for 24 h at 37° C. and 5% CO2 in 96-well culture plates. Once attached, each cell line was then exposed to various concentrations of each respective analogue (30, 3, 0.3 and 0.03 μM for compounds in Tables 2, 3 and 4; 30, 10, 3, 1, 0.3 and 0.1 μM for compounds in Table 5), cultured for a further 72 h and exposed to cell-titre luminescent reagent (100 μL/well) for a further 30 min). Luminescence was captured using an EnVision multilabel reader and the data for each analogue concentration compared against no treatment control. For compounds in Tables 2-4, semi-log plots of Percent of Control versus concentration were prepared and IC50 determined using linear regression analysis. For compounds in Table 5, cell viability was normalized to control (vehicle alone) and dose-response curves, and half maximal effective concentration (EC50) values were determined using Graph Pad Prism 6 (nonlinear regression sigmoidal dose-response variable slope).

SK-Mel-28 melanoma cells = conditions: Homo sapiens, SK-MEL-28, 72 h, 30, 3, 0.3 and 0.03 μM, linear regression (Tables 2-4)
Protocol: as §1

[2] = tested on: MDA-MB-231 triple negative breast cancer cells; conditions: Homo sapiens, MDA-MB-231, 72 h, 30, 3, 0.3 and 0.03 μM, linear regression (Tables 2-4)
Protocol: as §1

[3] = tested on: SK-N-SH neuroblastoma cells; conditions: Homo sapiens, SK-N-SH, 30, 3, 0.3 and 0.03 μM, linear regression (Tables 2-4)
Protocol: as §1

[4] = tested on: DU145 prostate cancer cells; conditions: Homo sapiens, DU-145, 72 h, 30, 3, 0.3 and 0.03 μM, linear regression (Tables 2-4)
Protocol: as §1

[5] = tested on: CaCo2 colorectal cancer cells; conditions: Homo sapiens, Caco-2, 72 h, 30, 3, 0.3 and 0.03 μM, linear regression (Tables 2-4)
Protocol: as §1

[6] = tested on: PC3 prostate cancer cells; conditions: 30, 3, 0.3 and 0.03 μM, linear regression (Tables 2-4)
Protocol: as §1

Cc1c(C)n(CCCN(C)C)c2ccc(C(=O)N3CCN(CCc4ccccc4)CC3)cc12 [Compound 4018, (1-(3-(dimethylamino)propyl)-2,3-dimethyl-1H-indol-5-yl)(4-phenethylpiperazin-1-yl)methanone]
IC50 [1]: > 30 µM | IC50 (SK-Mel-28 melanoma cells): 67.3 µM | IC50 [2]: > 30 µM | IC50 [3]: > 30 µM | IC50 [4]: > 30 µM | IC50 [5]: > 30 µM | IC50 [6]: > 30 µM

CN(C)CCCn1ccc2cc(Nc3ccc(C(=O)Nc4ccccc4)cc3)ccc21 [Compound 4026, 4-((1-(3-(dimethylamino)propyl)-1H-indol-5-yl)amino)-N-phenylbenzamide]
IC50 [1]: 3.8 µM | IC50 (SK-Mel-28 melanoma cells): 5.9 µM | IC50 [2]: 3.5 µM | IC50 [3]: 3.7 µM | IC50 [4]: 5 µM | IC50 [5]: 15.4 µM | IC50 [6]: 6.1 µM

CN(C)CCCn1ccc2cc(Cc3cccc(C(=O)Nc4ccc(F)cc4)c3)ccc21 [Compound 4045, 3-((1-(3-(dimethylamino)propyl)-1H-indol-5-yl)methyl)-N-(4-fluorophenyl)benzamide]
IC50 [1]: 3.7 µM | IC50 (SK-Mel-28 melanoma cells): 3.7 µM | IC50 [2]: 2.6 µM | IC50 [3]: 3.8 µM | IC50 [4]: 5.5 µM | IC50 [5]: 5.2 µM | IC50 [6]: 5.7 µM

COc1ccc(NC(=O)c2cccc(Cc3ccc4c(ccn4CCCN(C)C)c3)c2)cc1 [Compound 4046, 3-((1-(3-(dimethylamino)propyl)-1H-indol-5-yl)methyl)-N-(4-methoxyphenyl)benzamide]
IC50 [1]: 1.7 µM | IC50 (SK-Mel-28 melanoma cells): 1.9 µM | IC50 [2]: 1.9 µM | IC50 [3]: 3.2 µM | IC50 [4]: 2.6 µM | IC50 [5]: 3.2 µM | IC50 [6]: 1.1 µM

CN(C)CCCn1ccc2cc(Cc3cccc(C(=O)Nc4ccc5c(c4)OCO5)c3)ccc21 [Compound 4047, N-(benzo[d][1,3]dioxol-5-yl)-3-((1-(3-(dimethylamino)propyl)-1H-indol-5-yl)methyl)benzamide]
IC50 [1]: 3 µM | IC50 (SK-Mel-28 melanoma cells): 2.5 µM | IC50 [2]: 3 µM | IC50 [3]: 3.1 µM | IC50 [4]: 3.4 µM | IC50 [5]: 3 µM | IC50 [6]: 3.1 µM

CN(C)CCCn1ccc2cc(Cc3cccc(C(=O)Nc4cccc(F)c4)c3)ccc21 [Compound 4048, 3-((1-(3-(dimethylamino)propyl)-1H-indol-5-yl)methyl)-N-(3-fluorophenyl)benzamide]
IC50 [1]: 3 µM | IC50 (SK-Mel-28 melanoma cells): 3.1 µM | IC50 [2]: 3.2 µM | IC50 [3]: 3.9 µM | IC50 [4]: 3.3 µM | IC50 [5]: 6.9 µM | IC50 [6]: 3.8 µM

COc1cccc(NC(=O)c2cccc(Cc3ccc4c(ccn4CCCN(C)C)c3)c2)c1 [Compound 4049, 3-((1-(3-(dimethylamino)propyl)-1H-indol-5-yl)methyl)-N-(3-methoxyphenyl)benzamide]
IC50 [1]: 3 µM | IC50 (SK-Mel-28 melanoma cells): 3.1 µM | IC50 [2]: 3.4 µM | IC50 [3]: 3.3 µM | IC50 [4]: 3.3 µM | IC50 [5]: 3.2 µM | IC50 [6]: 3.4 µM

Cc1c(C)n(CCCN(C)C)c2ccc(Cc3cccc(C(=O)Nc4ccc(F)cc4)c3)cc12 [Compound 4050]
IC50 [1]: 3.1 µM | IC50 (SK-Mel-28 melanoma cells): 2.6 µM | IC50 [2]: 3.7 µM | IC50 [3]: 4 µM | IC50 [4]: 4.3 µM | IC50 [5]: 4.2 µM | IC50 [6]: 4.2 µM

COc1ccc(NC(=O)c2cccc(Cc3ccc4c(c3)c(C)c(C)n4CCCN(C)C)c2)cc1 [Compound 4051]
IC50 [1]: 4.1 µM | IC50 (SK-Mel-28 melanoma cells): 3.4 µM | IC50 [2]: 4.5 µM | IC50 [3]: 4.3 µM | IC50 [4]: 4.9 µM | IC50 [5]: 16.1 µM | IC50 [6]: 17.3 µM

Cc1c(C)n(CCCN(C)C)c2ccc(Cc3cccc(C(=O)Nc4ccc5c(c4)OCO5)c3)cc12 [Compound 4052, N-(benzo[d][1,3]dioxol-5-yl)-3-((1-(3-(dimethylamino)propyl)-2,3-dimethyl-1H-indol-5-yl)methyl)benzamide]
IC50 [1]: 8 µM | IC50 (SK-Mel-28 melanoma cells): 6.2 µM | IC50 [2]: 30 µM | IC50 [3]: 31.9 µM | IC50 [4]: 13.8 µM | IC50 [5]: 27.1 µM | IC50 [6]: 11.1 µM

Cc1c(C)n(CCCN(C)C)c2ccc(Cc3cccc(C(=O)Nc4cccc(F)c4)c3)cc12 [Compound 4053]
IC50 [1]: 2 µM | IC50 (SK-Mel-28 melanoma cells): 2.5 µM | IC50 [2]: 2.5 µM | IC50 [3]: 3.8 µM | IC50 [4]: 4.3 µM | IC50 [5]: 4.6 µM | IC50 [6]: 3.7 µM

COc1cccc(NC(=O)c2cccc(Cc3ccc4c(c3)c(C)c(C)n4CCCN(C)C)c2)c1 [Compound 4054]
IC50 [1]: 3.9 µM | IC50 (SK-Mel-28 melanoma cells): 4.1 µM | IC50 [2]: 4.6 µM | IC50 [3]: 4.5 µM | IC50 [4]: 4.5 µM | IC50 [5]: 5.1 µM | IC50 [6]: 3.9 µM

Cc1c(C)n(CCCN(C)C)c2ccc(Cc3cccc(C(=O)Nc4ccccc4)c3)cc12 [Compound 4055]
IC50 [1]: 4.7 µM | IC50 (SK-Mel-28 melanoma cells): 5.1 µM | IC50 [2]: 4.7 µM | IC50 [3]: 4.6 µM | IC50 [4]: 4.5 µM | IC50 [5]: 6.8 µM | IC50 [6]: 7.9 µM

CN(C)CCCn1ccc2cc(Oc3cccc(C(=O)Nc4ccc(F)cc4)c3)ccc21 [Compound 4056, 3-((1-(3-(dimethylamino)propyl)-1H-indol-5-yl)oxy)-N-(4-fluorophenyl)benzamide]
IC50 [1]: 4 µM | IC50 (SK-Mel-28 melanoma cells): 3.4 µM | IC50 [2]: 3 µM | IC50 [3]: 3.4 µM | IC50 [4]: 4.3 µM | IC50 [5]: 4.7 µM | IC50 [6]: 7 µM

COc1ccc(NC(=O)c2cccc(Oc3ccc4c(ccn4CCCN(C)C)c3)c2)cc1 [Compound 4057, 3-((1-(3-(dimethylamino)propyl)-1H-indol-5-yl)oxy)-N-(4-methoxyphenyl)benzamide]
IC50 [1]: 4.4 µM | IC50 (SK-Mel-28 melanoma cells): 2.7 µM | IC50 [2]: 3 µM | IC50 [3]: 4.9 µM | IC50 [4]: 6.4 µM | IC50 [5]: 10.3 µM | IC50 [6]: 8.7 µM

CN(C)CCCn1ccc2cc(Oc3cccc(C(=O)Nc4ccc5c(c4)OCO5)c3)ccc21 [Compound 4058, N-(benzo[d][1,3]dioxol-5-yl)-3-((1-(3-(dimethylamino)propyl)-1H-indol-5-yl)oxy)benzamide]
IC50 [1]: 4.7 µM | IC50 (SK-Mel-28 melanoma cells): 2.7 µM | IC50 [2]: 3.8 µM | IC50 [3]: 3.4 µM | IC50 [4]: 4.7 µM | IC50 [5]: 9.7 µM | IC50 [6]: 7.2 µM

CN(C)CCCn1ccc2cc(Oc3cccc(C(=O)Nc4cccc(F)c4)c3)ccc21 [Compound 4059, 3-((1-(3-(dimethylamino)propyl)-1H-indol-5-yl)oxy)-N-(3-fluorophenyl)benzamide]
IC50 [1]: 13.4 µM | IC50 (SK-Mel-28 melanoma cells): 15.5 µM | IC50 [2]: 13.2 µM | IC50 [3]: 11.3 µM | IC50 [4]: > 30 µM | IC50 [5]: > 30 µM | IC50 [6]: > 30 µM

COc1cccc(NC(=O)c2cccc(Oc3ccc4c(ccn4CCCN(C)C)c3)c2)c1 [Compound 4060]
IC50 [1]: 4.2 µM | IC50 (SK-Mel-28 melanoma cells): 2.8 µM | IC50 [2]: 2.8 µM | IC50 [3]: 3.6 µM | IC50 [4]: 4 µM | IC50 [5]: 4 µM | IC50 [6]: 5 µM

Cc1c(C)n(CCCN(C)C)c2ccc(Oc3cccc(C(=O)Nc4ccc(F)cc4)c3)cc12 [Compound 4061]
IC50 [1]: 3 µM | IC50 (SK-Mel-28 melanoma cells): 2.5 µM | IC50 [2]: 3.2 µM | IC50 [3]: 2.3 µM | IC50 [4]: 3 µM | IC50 [5]: 3.7 µM | IC50 [6]: 2.2 µM

COc1ccc(NC(=O)c2cccc(Oc3ccc4c(c3)c(C)c(C)n4CCCN(C)C)c2)cc1 [Compound 4062]
IC50 [1]: 2.3 µM | IC50 (SK-Mel-28 melanoma cells): 4.3 µM | IC50 [2]: 3.7 µM | IC50 [3]: 4.8 µM | IC50 [4]: 4.4 µM | IC50 [5]: 6 µM | IC50 [6]: 9 µM

Cc1c(C)n(CCCN(C)C)c2ccc(Oc3cccc(C(=O)Nc4ccc5c(c4)OCO5)c3)cc12 [Compound 4063, N-(benzo[d][1,3]dioxol-5-yl)-3-((1-(37(dimethylamino)propyl)-2,3-dimethyl-1H-indol-5-yl)oxy)benzamide]
IC50 [1]: 3 µM | IC50 (SK-Mel-28 melanoma cells): 3.8 µM | IC50 [2]: 3.7 µM | IC50 [3]: 4.2 µM | IC50 [4]: 3.6 µM | IC50 [5]: 9.6 µM | IC50 [6]: 4.9 µM

Cc1c(C)n(CCCN(C)C)c2ccc(Oc3cccc(C(=O)Nc4cccc(F)c4)c3)cc12 [Compound 4064]
IC50 [1]: 3.5 µM | IC50 (SK-Mel-28 melanoma cells): 2.7 µM | IC50 [2]: 3.3 µM | IC50 [3]: 2.4 µM | IC50 [4]: 3.4 µM | IC50 [5]: 3.8 µM | IC50 [6]: 2.6 µM
